Values of other authors, collected in paper PMC11187573, “Identification of SARS-CoV-2 Mpro inhibitors through deep reinforcement learning for de novo drug design and computational chemistry approaches” (RSC Medicinal Chemistry, 2024).
pIC50: −log10 of the molar value.

Test system: Mpro
Conditions: ML dataset, Origin COVID_Moonshot; ref COVID Moonshot; cited from earlier work

SMILES | pIC50
CC(C)(C)c1ccc(N(C(=O)c2cocn2)C(C(=O)NC2CC(F)(F)C2)c2cccnc2)cc1 (stereo not shown) [ALP-POS-88a7a97e-39] | 5.63
OC(Cc1cccc(Cl)c1)Cn1cncn1 (stereo not shown) [MAT-POS-6da3605a-2] | 4.09
Cc1ccncc1NC(=O)C(C)c1cccc(C#N)c1 (stereo not shown) | 4.30
O=C(Cc1ccncc1Cl)Nc1cncc2ccccc12 [RAL-THA-2d450e86-34] | 4.28
COC(=O)C(C)NC(=O)C(c1cccnc1)N(C(=O)c1cocn1)c1ccc(C(C)(C)C)cc1 (stereo not shown) [ALP-POS-88a7a97e-5] | 5.14
Cc1ccncc1NC(=O)Cc1cc(Cl)cc(NC2(C)CCC(F)(F)CC2)c1 [MAT-POS-044491d2-6] | 4.52
CCOC(=O)c1ncoc1CNC(=O)C(c1cccnc1)N(C(=O)c1cocn1)c1ccc(C(C)(C)C)cc1 (stereo not shown) [ALP-POS-88a7a97e-49] | 5.23
COc1ccccc1OCCNC(=O)c1cc(=O)[nH]c2ccccc12 | 5.27
CC(C)(C)c1ccc(N(C(=O)c2cnco2)C(C(=O)NCCc2cccc(F)c2)c2cccnc2)cc1 (stereo not shown) [ALP-POS-305f6ec3-49] | 5.32
O=C(Cc1ccc(Cl)c(Cl)c1)Nc1cncc2cnccc12 [VLA-UNK-82501c2c-1] | 5.73
O=C(Nc1cncc2ccccc12)C(O)c1ccc(Cl)c(Cl)c1 (stereo not shown) [MAT-POS-fce787c2-4] | 5.70
O=C1CC(C(=O)N2CCN(c3cccc(Cl)c3)CC2)c2ccccc2N1 (stereo not shown) [MAT-POS-450cb4f9-1] | 4.68
CN1C(=O)CCc2cc(N(C(=O)c3cocn3)C(C(=O)NCCc3cccc(F)c3)c3cccnc3)ccc21 (stereo not shown) [ALP-POS-ced8ea4d-1] | 4.20
COCc1ccc(N(C(=O)c2c[nH]cn2)C(C(=O)NCCc2cccc(F)c2)c2cccnc2)cc1 (stereo not shown) [BRU-THA-92256091-23] | 4.20
O=C(C[C@@]1(C(=O)Nc2cncc3ccccc23)CCOc2ccc(Cl)cc21)N1CCN(C2CCOC2)CC1 (stereo partly shown) [ALP-POS-2da19ca7-2] | 4.33
Cc1ccncc1NC(=O)Cc1cc(Cl)cc(OCc2nnc(C3CCCCC3)o2)c1 [CHO-MSK-6e55470f-7] | 4.77
N#Cc1cccc(NC(=O)Nc2c[nH]c3ncccc23)c1 [DAR-DIA-23aa0b97-11] | 4.20
Cc1ccncc1N1CCC(c2cccc(Cl)c2)C1=O (stereo not shown) [EDJ-MED-e66f2cc5-1] | 4.54
COC(=O)[C@@H]1CC[C@H](NC(=O)C(c2cccnc2)N(C(=O)c2cocn2)c2ccc(C(C)(C)C)cc2)C1 (stereo partly shown) [ALP-POS-88a7a97e-6] | 5.62
Cc1cc(NC(=O)Cc2cncnc2)cc(OC2CC(=O)N2)c1 (stereo not shown) | 4.46
O=C(Cc1cccc(C(F)(F)F)c1)Nc1cncc2ccccc12 [RAL-THA-2d450e86-31] | 5.16
O=C(Cc1cc(Cl)cc2c1OCC2)Nc1cncc2ccccc12 | 6.01
CNc1ccc(N(C(=O)Cn2nnc3ccccc32)c2cccc(Cl)c2)cc1 [MAT-POS-06036648-5] | 5.10
O=C(Cc1cc(F)cc(Cl)c1)Nc1cncc2ccccc12 [RAL-THA-2d450e86-14] | 6.42

SMILES | pIC50
Cn1cncc1NC(=O)Cc1cccc(Cl)c1 | 4.02
CC(C)(C)c1ccc(N(C(=O)c2cocn2)C(C(=O)NCc2cccnc2)c2cccnc2)cc1 (stereo not shown) [ALP-POS-88a7a97e-4] | 4.60
O=C(Nc1cncc2ccccc12)C(NCC1CC1)c1ccc(Cl)c(Cl)c1 (stereo not shown) [MAT-POS-1f3f1a6f-4] | 5.76
Cn1cnc(C(=O)N(c2ccc(C(C)(C)C)cc2)C(C(=O)NCCc2cccc(F)c2)c2cccnc2)n1 (stereo not shown) [ALP-POS-305f6ec3-55] | 4.13
O=C(Cn1nnc2ccccc21)N(Cc1cccc(Cl)c1)c1ccc(N2CCCCC2)cc1 [CHO-MSK-00c5269a-5] | 5.32
CC(C)(C)c1ccc(N(C(=O)c2c[nH]c(=O)[nH]2)C(C(=O)NCCc2cccc(F)c2)c2cccnc2)cc1 (stereo not shown) [ALP-POS-305f6ec3-52] | 4.80
CN(C)C(=O)CC1(C(=O)Nc2cncc3ccccc23)CCOc2ccc(Cl)cc21 (stereo not shown) [MAT-POS-5d65ec79-1] | 5.53
CC(=O)NC(C)c1cc(F)cc(Cl)c1 (stereo not shown) [DAV-CRI-3edb475e-6, Mpro-x10172] | 4.61
O=C(Cc1cncc2ccccc12)Nc1cc(Cl)cc(OC2CCC(=O)N2)c1 (stereo not shown) [ERI-UCB-ce40166b-6] | 4.54
O=C(Cc1cc(Cl)ccc1Cl)Nc1cncc2ccccc12 [PET-UNK-dd44aeb6-2] | 5.99
O=C(NCc1cccs1)[C@@H](c1ccccc1)N1Cc2ccccc2C1=O [LON-WEI-f8a636e2-1] | 4.04
Cc1ccncc1NC(=O)Cc1cc(Cl)cc(S(N)(=O)=O)c1 [RAL-THA-6b94ceba-13] | 4.86
O=C(c1cc(=O)[nH]c2ccccc12)N1CCN(c2ccccc2F)CC1 | 4.62
O=C(Cc1cc(Cl)cc(OC2CC(=O)N2)c1)Nc1cncc2ccccc12 (stereo not shown) [ALP-POS-3b848b35-2, O=C(Cc1cc(Cl)cc(OC2CC(=O)N2)c1)Nc1cncc2ccccc12, reference compound] | 6.74
COc1ccc(CC(=O)Nc2cncc3ccccc23)cc1 [RAL-THA-2d450e86-4] | 4.14
O=C(c1cc(=O)[nH]c2ccccc12)N1CCN(c2cccc(C(F)(F)F)c2)CC1 [ERI-UCB-a0b0dbcb-4] | 5.33
CCOc1c(Cl)cccc1CC(=O)Nc1cncc2ccccc12 [MAT-POS-fce787c2-1] | 5.16
CC(C)S(=O)(=O)c1ccc(N(C(=O)c2cocn2)C(C(=O)NCCc2cccc(F)c2)c2cccnc2)cc1 (stereo not shown) [ALP-POS-ced8ea4d-5] | 4.18
O=C(Nc1cncc2ccccc12)C1CCN(Cc2ccccc2)c2ccc(Cl)cc21 (stereo not shown) [RAL-THA-8416115c-1] | 5.97
CN(C)c1ccc(N(Cc2ccccc2)C(=O)Cn2nnc3ccccc32)cc1 [ALP-POS-6d04362c-1] | 5.48
CC(C)(C)c1ccc(N(C(=O)c2c[nH]nn2)C(C(=O)NCCc2cccc(F)c2)c2cccnc2)cc1 (stereo not shown) [ALP-POS-305f6ec3-14] | 5.93
CNC(=O)c1cc(Cl)cc(CC(=O)Nc2cnccc2C)c1 [RAL-THA-6b94ceba-7] | 4.32
CNc1ccc(N(Cc2ccsc2)C(=O)Cn2nnc3ccccc32)cc1 [ALP-POS-c59291d4-4] | 4.94
Cc1cc(C(F)(F)F)nc2n[nH]c(NC(=O)Cc3cccc(Cl)c3)c12 [EDJ-MED-c8e7a002-5] | 4.04

SMILES | pIC50
Cc1cc(C)c(C)c(S(=O)(=O)N2CCN(C(=O)c3cc(=O)[nH]c4ccccc34)CC2)c1C [MAT-POS-916a2c5a-3] | 5.21
O=C(Cc1cc(Cl)cc(OC2CC(=O)N2)c1)Nc1cc(=O)[nH]c2ccccc12 (stereo not shown) [MAT-POS-3b92565d-6] | 4.04
CC(C)(C)c1ccc(N(C(=O)c2cocn2)C(C(=O)NCCc2cccc(F)c2)c2ccnnc2)cc1 (stereo not shown) [ALP-POS-d0876c20-5] | 5.69
CNC(=O)C1(CC(=O)Nc2cncc3ccccc23)CCOc2ccc(Cl)cc21 (stereo not shown) [MAT-POS-78e1d523-2] | 4.51
O=C(NCCc1cccc(F)c1)C(c1cccnc1)N(C(=O)c1cocn1)c1ccc(OC2CCOC2)cc1 (stereo not shown) [ALP-POS-ced8ea4d-32] | 5.20
COc1nccnc1C(C(=O)NCCc1cccc(F)c1)N(C(=O)c1cocn1)c1ccc(C(C)(C)C)cc1 (stereo not shown) [ALP-POS-d0876c20-15] | 4.02
O=C(COc1cccc(Cl)c1)Nc1cncc2ccccc12 [ALP-POS-f13221e1-2] | 5.07
CC(C)(C)c1ccc(N(C(=O)c2ccco2)C(C(=O)N2CCOCC2)c2cccnc2)cc1 (stereo not shown) [ALP-POS-0c0a3b93-1] | 4.39
CC(C)(C)c1ccc(N(C(=O)c2cocn2)C(C(=O)NC2CCOCC2)c2cccnc2)cc1 (stereo not shown) [ALP-POS-88a7a97e-9] | 5.41
O=C(NCCc1cccc(F)c1)C(c1cccnc1)N(C(=O)c1cocn1)c1ccc(Cn2cccn2)cc1 (stereo not shown) [ALP-POS-ced8ea4d-16] | 5.08
O=C(Cc1cccnc1)Nc1cccc(OC2CC(=O)N2)c1 (stereo not shown) | 4.05
O=C(CC1(C(=O)Nc2cncc3ccccc23)CCOc2ccc(Cl)cc21)N1CCN(C2CCOC2)CC1 (stereo not shown) [ALP-POS-5bb456a5-7] | 5.17
O=C(Nc1cncc2c1CNCC2)C1CCOc2ccc(Cl)cc21 (stereo not shown) | 5.21
Cc1ccc(N(Cc2cscn2)C(=O)Cc2cncc3ccccc23)cc1 [ALP-POS-c3a96089-1] | 4.96
O=C(NCCc1cccc(F)c1)C(c1cccnc1)N(C(=O)c1ccco1)c1ccc(C2CCCC2)cc1 (stereo not shown) [ALP-POS-b0bc6a46-5] | 6.55
O=C(Cc1cccc(Cl)c1)Nn1nnc2ccccc21 | 4.73
O=C(c1cc(=O)[nH]c2ccccc12)N1CCN(c2cccc(Cl)c2)C(=O)C1 | 4.90
COc1ccccc1N1CCN(C(=O)c2cc(=O)[nH]c3ccccc23)CC1 [BEN-DND-7e92b6ca-13] | 4.48
Cc1ccncc1N1CCN(c2cccc(Cl)c2)C1=O | 4.04
COc1ccc2nnn(CC(=O)N(Cc3ccccn3)c3ccc(C4CCNCC4)cc3)c2c1 [ALP-POS-c0c213c9-1] | 4.45
CC(C)(C)c1ccc(N(C(=O)c2c[nH]c(=O)s2)C(C(=O)NCCc2cccc(F)c2)c2cccnc2)cc1 (stereo not shown) [ALP-POS-305f6ec3-2] | 4.54
COc1ccc2c(NC(=O)C3CCOc4ccc(Cl)cc43)noc2c1 (stereo not shown) [JAG-UCB-52b62a6f-10] | 4.24
COc1cccc(N2CCN(C(=O)c3cc(=O)[nH]c4ccccc34)CC2)c1 [BEN-DND-7e92b6ca-12] | 4.87
O=C1CC(C(=O)Nc2cncc3ccccc23)c2cc(Cl)cc(Cl)c2N1 (stereo not shown) [MAT-POS-f39f51fd-1] | 5.56

Same assay, conditions: ML dataset, Origin ChEMBL; ref ChEMBL; cited from earlier work

SMILES | pIC50
CCOC(=O)Cc1ccc(-c2ccccc2)cc1 [CHEMBL1886408, CCOC(Cc(cc1)ccc1-c1ccccc1)=O, reference compound] | 6.70
Cc1noc(NC(=O)c2ccc(-c3cc(C(F)(F)F)nn3C)s2)c1[N+](=O)[O-] [CHEMBL427404, Cc1noc(NC(c2ccc(-c3cc(C(F)(F)F)nn3C)s2)=O)c1[N+]([O-])=O, reference compound] | 5.30
O=C(Oc1cncc(Cl)c1)c1cc2ccccc2s1 [CHEMBL222893, O=C(c1cc(cccc2)c2s1)Oc1cc(Cl)cnc1, reference compound] | 7.02
CSc1[nH]nc(NC(=O)c2cccs2)c1S(=O)(=O)c1ccccc1 [CHEMBL378700] | 4.82
Cc1nn(C)c(NCc2ccc(-c3cccs3)s2)c1[N+](=O)[O-] [CHEMBL375130] | 4.70
C[C@H]1COc2c(N3CCN(C)CC3)c(F)cc3c(=O)c(C(=O)O)cn1c23 [CHEMBL33] | 5.12
O=C(Oc1cncc(Cl)c1)c1cc2ccccc2[nH]1 [CHEMBL225515, O=C(c1cc(cccc2)c2[nH]1)Oc1cc(Cl)cnc1, reference compound] | 7.19
